From patent publication US3963711A, “Cyanomethyl sulfinyl- and sulfonyl-acetamido cephalosporins” (SmithKline Corporation, priority 1975, dated 1976)
Values after ≈ are worked out from the molar mass of the structure shown.

Tests used:
Assay type in all cases: cell-based
[1] = tested on: S. aureus HH 127; test: MIC by standard agar inclusion method, S. aureus HH 127; details: Staphylococcus aureus, HH127
[2] = tested on: S. aureus SK 23390; test: MIC by standard agar inclusion method, S. aureus SK 23390; details: Staphylococcus aureus, SK23390
[3] = tested on: S. aureus Villaluz; test: MIC by standard agar inclusion method, S. aureus Villaluz; details: Staphylococcus aureus
[4] = tested on: Strep. faecalis HH 34358; test: MIC by standard agar inclusion method, Strep. faecalis HH 34358; details: Enterococcus faecalis, HH34358
[5] = tested on: E. Coli SK 12140; test: MIC by standard agar inclusion method, E. Coli SK 12140; details: Escherichia coli
[6] = tested on: E. Coli HH 33779; test: MIC by standard agar inclusion method, E. Coli HH 33779; details: Escherichia coli
[7] = tested on: Kleb. pneumo. SK 4200; test: MIC by standard agar inclusion method, Kleb. pneumo. SK 4200
[8] = tested on: Kleb. pneumo. SK 1200; test: MIC by standard agar inclusion method, Kleb. pneumo. SK 1200
[9] = tested on: Salmonella ATCC 12176; test: MIC by standard agar inclusion method, Salmonella ATCC 12176; details: ATCC12176
[10] = tested on: Shigella paradysentiae; test: MIC by standard agar inclusion method, Shigella paradysentiae
[11] = tested on: Pseudo. aeruginosa HH63; test: MIC by standard agar inclusion method, Pseudo. aeruginosa HH63; details: Pseudomonas aeruginosa
[12] = tested on: Serratia marc. ATCC 13880; test: MIC by standard agar inclusion method, Serratia marc. ATCC 13880; details: ATCC13880
[13] = tested on: Entero. aerogenes ATCC 13048; test: MIC by standard agar inclusion method, Entero. aerogenes ATCC 13048; details: Klebsiella aerogenes, ATCC13048

Cc1nnc(SCC2=C(C(=O)O)N3C(=O)C(NC(=O)CS(=O)(=O)CC#N)[C@H]3SC2)s1 (stereo partly drawn) [Compound 09346, 7-Cyanomethylsulfonylacetamido-3-(5-methyl-1,3,4-thiadiazol-2-ylthiomethyl)-3-cephem-4-carboxylic acid] showed an MIC [1] of 1.6 µg/mL (≈ 3.27 µM), an MIC [2] of 1.6 µg/mL (≈ 3.27 µM) and an MIC [3] of 100 µg/mL (≈ 204 µM). For the same molecule, the MIC [4] was 25 µg/mL (≈ 51.1 µM), the MIC [5] was 3.1 µg/mL (≈ 6.33 µM) and the MIC [6] was 6.3 µg/mL (≈ 12.9 µM). For the same molecule, the MIC [7] was 6.3 µg/mL (≈ 12.9 µM), the MIC [8] was 3.1 µg/mL (≈ 6.33 µM) and the MIC [9] was 6.3 µg/mL (≈ 12.9 µM). The MIC [10] was 3.1 µg/mL (≈ 6.33 µM), the MIC [11] was over 200 µg/mL and the MIC [12] was over 200 µg/mL. The MIC [13] was 12.5 µg/mL (≈ 25.5 µM).

For Cc1nnc(SCC2=C(C(=O)O)N3C(=O)C(NC(=O)CSCC#N)[C@H]3SC2)s1 (stereo partly drawn) [Compound 21436, 7-Cyanomethylmercaptoacetamido-3-(5-methyl-1,3,4-thiadiazol-2-ylthiomethyl)-3-cephem-4-carboxylic acid], the MIC [1] was 0.2 µg/mL (≈ 0.437 µM), the MIC [2] was 0.1 µg/mL (≈ 0.219 µM) and the MIC [3] was 25 µg/mL (≈ 54.6 µM). For the same molecule, the MIC [4] was 6.3 µg/mL (≈ 13.8 µM), the MIC [5] was 1.6 µg/mL (≈ 3.5 µM) and the MIC [6] was 6.3 µg/mL (≈ 13.8 µM). It also gave an MIC [7] of 1.6 µg/mL (≈ 3.5 µM), an MIC [8] of 0.8 µg/mL (≈ 1.75 µM) and an MIC [9] of 1.6 µg/mL (≈ 3.5 µM). It also gave an MIC [10] of 1.6 µg/mL (≈ 3.5 µM), an MIC [11] of over 200 µg/mL and an MIC [12] of over 200 µg/mL. The MIC [13] was over 200 µg/mL.

With Cn1nnnc1SCC1=C(C(=O)O)N2C(=O)C(NC(=O)CS(=O)(=O)CC#N)[C@H]2SC1 (stereo partly drawn) [Compound 72346, 7-Cyanomethylsulfonylacetamido-3-(1-methyltetrazol-5-ylthiomethyl)-3-cephem-4-carboxylic acid] the MIC [1] was 1.6 µg/mL (≈ 3.38 µM), the MIC [2] was 1.6 µg/mL (≈ 3.38 µM) and the MIC [3] was 25 µg/mL (≈ 52.8 µM). The MIC [4] was 50 µg/mL (≈ 106 µM), the MIC [5] was 1.6 µg/mL (≈ 3.38 µM) and the MIC [6] was 3.1 µg/mL (≈ 6.55 µM). It also gave an MIC [7] of 1.6 µg/mL (≈ 3.38 µM), an MIC [8] of 1.6 µg/mL (≈ 3.38 µM) and an MIC [9] of 1.6 µg/mL (≈ 3.38 µM). It also gave an MIC [10] of 1.6 µg/mL (≈ 3.38 µM), an MIC [11] of over 200 µg/mL and an MIC [12] of over 200 µg/mL. The MIC [13] was 6.3 µg/mL (≈ 13.3 µM).

With CC(=O)OCC1=C(C(=O)O)N2C(=O)C(NC(=O)CSCC#N)C2SC1 (stereo not drawn) [Compound 79336, 7-Cyanomethylmercaptoacetamidocephalosporanic acid] the MIC [1] was 0.2 µg/mL (≈ 0.519 µM), the MIC [2] was 0.8 µg/mL (≈ 2.08 µM) and the MIC [3] was 25 µg/mL (≈ 64.9 µM). The MIC [4] was 12.5 µg/mL (≈ 32.4 µM), the MIC [5] was 6.3 µg/mL (≈ 16.3 µM) and the MIC [6] was 12.5 µg/mL (≈ 32.4 µM). The MIC [7] was 1.6 µg/mL (≈ 4.15 µM), the MIC [8] was 6.3 µg/mL (≈ 16.3 µM) and the MIC [9] was 1.6 µg/mL (≈ 4.15 µM). It also gave an MIC [10] of 6.3 µg/mL (≈ 16.3 µM), an MIC [11] of over 200 µg/mL and an MIC [12] of over 200 µg/mL. The MIC [13] was over 200 µg/mL.

CC(=O)OCC1=C(C(=O)O)N2C(=O)C(NC(=O)CS(=O)(=O)CC#N)C2SC1 (stereo not drawn) [Compound 90246, 7-cyanomethylsulfonylacetamidocephalosporanic acid] gave an MIC [1] of 1.6 µg/mL (≈ 3.83 µM), an MIC [2] of 1.6 µg/mL (≈ 3.83 µM) and an MIC [3] of 25 µg/mL (≈ 59.9 µM). For the same molecule, the MIC [4] was 50 µg/mL (≈ 120 µM), the MIC [5] was 6.3 µg/mL (≈ 15.1 µM) and the MIC [6] was 25 µg/mL (≈ 59.9 µM). The MIC [7] was 25 µg/mL (≈ 59.9 µM), the MIC [8] was 6.3 µg/mL (≈ 15.1 µM) and the MIC [9] was 3.1 µg/mL (≈ 7.43 µM). The MIC [10] was 6.3 µg/mL (≈ 15.1 µM), the MIC [11] was over 200 µg/mL and the MIC [12] was over 200 µg/mL. The MIC [13] was 50 µg/mL (≈ 120 µM).

With Cn1nnnc1SCC1=C(C(=O)O)N2C(=O)C(NC(=O)CSCC#N)[C@H]2SC1 (stereo partly drawn) [Compound 94436, 7-Cyanomethylmercaptoacetamido-3-(1-methyltetrazol-5-ylthiomethyl)-3-cephem-4-carboxylic acid] the MIC [1] was 0.4 µg/mL (≈ 0.906 µM), the MIC [2] was 0.4 µg/mL (≈ 0.906 µM) and the MIC [3] was 12.5 µg/mL (≈ 28.3 µM). It also gave an MIC [4] of 50 µg/mL (≈ 113 µM), an MIC [5] of 0.8 µg/mL (≈ 1.81 µM) and an MIC [6] of 1.6 µg/mL (≈ 3.62 µM). It also gave an MIC [7] of 1.6 µg/mL (≈ 3.62 µM), an MIC [8] of 1.6 µg/mL (≈ 3.62 µM) and an MIC [9] of 0.4 µg/mL (≈ 0.906 µM). For the same molecule, the MIC [10] was 0.8 µg/mL (≈ 1.81 µM), the MIC [11] was over 200 µg/mL and the MIC [12] was over 200 µg/mL. It also gave an MIC [13] of 12.5 µg/mL (≈ 28.3 µM).
